Laboratory results: PubChem BioAssay (NCI)
Values joined by “and” are separate entries in the source; they are usually repeats but may differ in a detail not shown here. Equal values may be shown once.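 Interpolation was linear, between the two tested concentrations surrounding the appropriate level; five concentrations were tested over 48 hours in 96-well plates. GI50: concentration for 50% inhibition of growth. TGI marks complete inhibition of growth.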

Legend:
Experiment in all cases: NCI anticancer screen, dose series, 48 h; in the data active means GI50 below about 0.43 µM; inactive means the rest
[1] = tested on: SK-MEL-28 melanoma
[2] = tested on: LOX IMVI melanoma
[3] = tested on: HCC-2998 colon
[4] = tested on: DMS 273 small cell lung
[5] = tested on: XF 498 CNS
[6] = tested on: NCI-H460 lung
[7] = tested on: HT29 colon
[8] = tested on: 786-0 renal
[9] = tested on: K-562 leukemia
[10] = tested on: M14 melanoma
[11] = tested on: SNB-19 CNS
[12] = tested on: NCI-H226 lung
[13] = tested on: COLO 205 colon
[14] = tested on: CCRF-CEM leukemia
[15] = tested on: EKVX NSCLC
[16] = tested on: HCT-15 colon
[17] = tested on: TK-10 renal
[18] = tested on: DMS 114 small cell lung
[19] = tested on: UO-31 renal
[20] = tested on: SK-MEL-5 melanoma
[21] = tested on: M19-MEL melanoma
[22] = tested on: OVCAR-8 ovarian
[23] = tested on: SR leukemia
[24] = tested on: KM12 colon
[25] = tested on: MALME-3M melanoma
[26] = tested on: LXFL 529 NSCLC
[27] = tested on: IGROV1 ovarian
[28] = tested on: MOLT-4 leukemia
[29] = tested on: NCI-H23 lung
[30] = tested on: HL-60(TB) leukemia
[31] = tested on: SK-OV-3 ovarian
[32] = tested on: UACC-257 melanoma
[33] = tested on: OVCAR-3 ovarian
[34] = tested on: SN12C renal
[35] = tested on: SF-539 CNS
[36] = tested on: SF-268 CNS
[37] = tested on: ACHN renal
[38] = tested on: NCI-H522 lung
[39] = tested on: RPMI-8226 leukemia
[40] = tested on: HCT-116 colon
[41] = tested on: U251 CNS
[42] = tested on: UACC-62 melanoma
[43] = tested on: HOP-62 NSCLC
[44] = tested on: SW-620 colon
[45] = tested on: A549 NSCLC
[46] = tested on: SF-295 CNS
[47] = tested on: KM20L2 colon
[48] = tested on: OVCAR-5 ovarian
[49] = tested on: HOP-92 NSCLC
[50] = tested on: MDA-MB-231 breast
[51] = tested on: MCF7 breast
[52] = tested on: OVCAR-4 ovarian
[53] = tested on: RXF 393 renal
[54] = tested on: T-47D breast
[55] = tested on: NCI/ADR-RES ovarian
[56] = tested on: MDA-N
[57] = tested on: A498 renal
[58] = tested on: SK-MEL-2 melanoma
[59] = tested on: PC-3 prostate
[60] = tested on: DU-145 prostate
[61] = tested on: MDA-MB-435
[62] = tested on: BT-549 breast
[63] = tested on: SNB-75 CNS
[64] = tested on: CAKI-1 renal
[65] = tested on: HS 578T breast

Cc1ccc(-n2cc(/C(N)=N/O)c3ccccc3c2=O)cc1
> 100 µM: TGI [1] | TGI [2] | TGI [3] | TGI [4] | TGI [5] | TGI [6] | TGI [7] | TGI [8] | TGI [9] | TGI [10] | TGI [11] | TGI [12] | TGI [13] | TGI [14] | TGI [15] | TGI [16] | TGI [17] | TGI [18] | TGI [19] | TGI [20] | TGI [21] | TGI [22] | TGI [23] | TGI [24] | TGI [25] | TGI [26] | TGI [27] | TGI [28] | TGI [29] | TGI [30] | TGI [31] | TGI [32] | TGI [33] | TGI [34] | TGI [35] | TGI [36] | TGI [37] | TGI [38] | TGI [39] | TGI [40] | TGI [41] | TGI [42] | TGI [43] | TGI [44] | TGI [45] | TGI [46] | TGI [47]

NCC1OC(OC2C(N)CC(N)C(O)C2OC2OC(CO)C(O)C2O)C(N)C(O)C1O (centres undefined)
> 100 µM: TGI [1] | TGI [2] | TGI [48] | TGI [3] | TGI [49] | TGI [6] | TGI [7] | TGI [50] | TGI [8] | TGI [51] | TGI [9] | TGI [10] | TGI [11] | TGI [52] | TGI [12] | TGI [13] | TGI [14] | TGI [15] | TGI [16] | TGI [17] | TGI [54] | TGI [55] | TGI [56] | TGI [19] | TGI [20] | TGI [22] | TGI [57] | TGI [24] | TGI [25] | TGI [27] | TGI [58] | TGI [28] | TGI [59] | TGI [29] | TGI [60] | TGI [30] | TGI [31] | TGI [32] | TGI [61] | TGI [62] | TGI [33] | TGI [34] | TGI [35] | TGI [36] | TGI [37] | TGI [38] | TGI [63] | TGI [39] | TGI [64] | TGI [40] | TGI [41] | TGI [42] | TGI [44] | TGI [65] | TGI [45] | TGI [46]
> 50 µM: TGI [53] | TGI [23] | TGI [43]
inactive: GI50 [13] > 100 µM | GI50 [39] 48 µM and > 100 µM | GI50 [40] > 100 µM
